# Test results as given in US20060069132A1, “Azolecarboxamide herbicides” (priority 2004, published 2006).
# Assays:
# [1] = system: goosegrass; experiment: Test C pre-/postemergence herbicide test; format: in vivo, Eleusine indica; conditions: preemergence
# Source text: (§1) Seeds of plant species selected from bermudagrass (Cynodon dactylon (L.) Pers.), Surinam grass (Urochloa decumbens (Staph) R. D. Webster, previously named Brachiaria decumbens Stapf), cocklebur (Xanthium strumarium L.), corn (Zea mays L.), large crabgrass (Digitaria sanguinalis (L.) Scop.), woolly cupgrass (Eriochloa villosa (Thunb.) Kunth), giant foxtail (Setaria faberi Herrm.), goosegrass (Eleusine indica (L.) Gaertn.), johnsongrass (Sorghum halepense (L.) Pers.), kochia (Kochia scoparia (L.) Schrad.), lambsquarters (Chenopodium album L.), morningglory (Ipomoea coccinea L.), eastern black nightshade (Solanum ptycanthum Dunal), yellow nutsedge (Cyperus esculentus L.), pigweed (Amaranthus retroflexus L.), common ragweed (Ambrosia elatior L.), soybean (Glycine max (L.) Merr.), common (oilseed) sunflower (Helianthus annuus L.) and velvetleaf (Abutilon theophrasti Medik.) were planted and treated preemergence with test chemicals formulated in a non-phytotoxic solvent mixture which included a surfactant.
# (§2) At the same time, plants selected from these crop and weed species and also winter barley (Hordeum vulgare L.), blackgrass (Alopecurus myosuroides Huds.), canarygrass (Phalaris minor Retz.), chickweed (Stellaria media (L.) Vill.), downy bromegrass (Bromus tectorum L.), green foxtail (Setaria viridis (L.) Beauv.), Italian ryegrass (Lolium multiflorum Lam.), wheat (Triticum aestivum L.), wild oat (Avenafatua L.) and windgrass (Apera spica-venti (L.) Beauv.) were treated with postemergence applications of some of the test chemicals formulated in the same manner. Plants ranged in height from 2 to 18 cm (1- to 4-leaf stage) for postemergence treatments. Plant species in the flooded paddy test consisted of rice (Oryza sativa), smallflower umbrella sedge (Cyperus difformis L.), ducksalad (Heteranthera limosa (Sw.) Willd.) and barnyardgrass (Echinochloa crus-galli (L.) Beauv.) grown to the 2-leaf stage for testing. Treated plants and controls were maintained in a greenhouse for 12 to 14 days, after which time all species were compared to controls and visually evaluated. Plant response ratings, summarized in Table C, are based on a scale of 0 to 100 where 0 is no effect and 100 is complete control. A dash (-) response means no test result.
# [2] = system: giant foxtail; experiment: Test B pre-/postemergence herbicide test; format: in vivo, Setaria faberi
# Summary of the method: (§3)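 Flooded paddy rice and barnyardgrass were treated at the 2-leaf stage; upland plantings received compound either on sown seed or on 1- to 4-leaf seedlings. All were kept 13–15 days in a greenhouse and scored visually, 0–100, relative to untreated plants.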
# [3] = system: kochia; experiment: Test C pre-/postemergence herbicide test; format: in vivo, Kochia scoparia; conditions: preemergence
# Source text: as §1, §2
# [4] = system: common ragweed; experiment: Test C pre-/postemergence herbicide test; format: in vivo, Ambrosia elatior; set-up: key to Plant response rating, Ragweed: 0 = no effect, 100 = complete control; conditions: preemergence
# Source text: as §1, §2
# [5] = system: Surinam grass; experiment: Test C pre-/postemergence herbicide test; format: in vivo, Urochloa decumbens; conditions: preemergence
# Source text: as §1, §2
# [6] = system: large crabgrass; experiment: Test C pre-/postemergence herbicide test; format: in vivo, Digitaria sanguinalis; conditions: preemergence
# Source text: as §1, §2
# [7] = system: smallflower umbrella sedge; experiment: Test C flooded paddy test; format: in vivo, Cyperus difformis; conditions: for Plant response rating, Sedge, Umbrella: 500 g ai/ha, visual rating after 12 to 14 days
# [8] = system: pigweed; experiment: Test B pre-/postemergence herbicide test; format: in vivo, Amaranthus retroflexus
# Summary of the method: as §3
# [9] = system: lambsquarters; experiment: Test C pre-/postemergence herbicide test; format: in vivo, Chenopodium album; conditions: preemergence
# Source text: as §1, §2
# [10] = 125 g ai/ha, scale 0 (no effect) to 100 (complete control), visual, 12 to 14 days
# [11] = postemergence, 125 g ai/ha; visual rating, scale 0 (no effect) to 100 (complete control)
# [12] = 62 g ai/ha, scale 0 to 100 (0 no effect, 100 complete control)
# [13] = 250 g ai/ha, scale of 0 to 100, 0 is no effect, 100 is complete control
# [14] = scale 0 to 100 (0 no effect, 100 complete control)
# [15] = postemergence, 125 g ai/ha, visual rating, scale 0 (no effect) to 100 (complete control)
# [16] = 500 g ai/ha, scale 0 to 100 (0 no effect, 100 complete control), visual, 12 to 14 days
# [17] = postemergence, 500 g ai/ha; scale 0 to 100, 0 is no effect, 100 is complete control
# [18] = 125 g ai/ha, scale 0 to 100 (0 no effect, 100 complete control)
smiles,measurement,setting,value
CCOC(=O)c1cc(NC(=O)c2cc(C(C)(C)C)nn2CC)ccc1OCC [Compound 95],"Plant response rating, Goosegrass","[1]; 31 g ai/ha, scale 0 to 100",0
same,"Plant response rating (0 = no effect, 100 = complete control), Goosegrass",[1]; 62 g ai/ha,0
same,"Plant response rating, Goosegrass",[1]; [10],50
same,"Plant response rating, Foxtail, Giant","[2]; 500 g ai/ha; visual rating 0-100, 0 no effect, 100 complete control; preemergence",100
same,"Plant response rating, Foxtail, Giant","[2]; Postemergence, 500 g ai/ha; visual rating after 13 to 15 days, scale 0 (no effect) to 100 (complete control)",30
same,"Foxtail, Giant plant response rating",[2]; [11],10
same,"Plant response rating, Foxtail, Giant","[2]; preemergence, 125 g ai/ha; 0 to 100 scale, 0 is no effect, 100 is complete control",50
same,"Plant response rating, Kochia","[3]; 31 g ai/ha, scale 0 to 100",80
same,"Plant response rating (0 = no effect, 100 = complete control), Kochia",[3]; 62 g ai/ha,100
same,"Plant response rating, Kochia",[3]; [10],100
same,"Plant response rating, Ragweed","[4]; 31 g ai/ha, scale 0 to 100",10
same,"Plant response rating (0 = no effect, 100 = complete control), Ragweed",[4]; 62 g ai/ha,50
same,"Plant response rating, Ragweed",[4]; [10],80
same,"Plant response rating, Surinam Grass","[5]; 31 g ai/ha, scale 0 to 100",0
same,"Plant response rating (0 = no effect, 100 = complete control), Surinam Grass",[5]; 62 g ai/ha,0
same,"Plant response rating, Surinam Grass",[5]; [10],10
same,"Plant response rating, Crabgrass, Large","[6]; 31 g ai/ha, scale 0 to 100",10
same,"Plant response rating (0 = no effect, 100 = complete control), Crabgrass, Large",[6]; 62 g ai/ha,80
same,"Plant response rating, Crabgrass, Large",[6]; [10],100
same,"Plant response rating, Crabgrass, Large","[6]; 250 g ai/ha, scale 0 to 100 (0 no effect, 100 complete control), visual, 12 to 14 days",100
same,"Sedge, Umbrella plant response rating",[7]; [12],85
same,"Sedge, Umbrella plant response rating","[7]; 125 g ai/ha, scale of 0 to 100, 0 is no effect, 100 is complete control",90
same,"Sedge, Umbrella plant response rating",[7]; [13],95
same,"Plant response rating, Sedge, Umbrella",[7]; [14],95
same,"Plant response rating, Pigweed","[8]; 500 g ai/ha, visual rating 0-100, 0 no effect, 100 complete control, preemergence",100
same,"Plant response rating, Pigweed","[8]; Postemergence, 500 g ai/ha, visual rating after 13 to 15 days, scale 0 (no effect) to 100 (complete control)",100
same,Pigweed plant response rating,[8]; [15],90
same,"Plant response rating, Pigweed","[8]; preemergence, 125 g ai/ha, 0 to 100 scale, 0 is no effect, 100 is complete control",100
CCc1nn(C(C)C)nc1C(=O)Nc1cccc(C(=O)N2CCCCC2)c1 [Compound 385],"Plant response rating, Lambsquarters","[9]; 62 g ai/ha, scale 0 to 100",75
same,"Plant response rating (0 = no effect, 100 = complete control), Lambsquarters",[9]; 125 g ai/ha,100
same,"Plant response rating, Lambsquarters","[9]; 250 g ai/ha, scale 0-100",100
same,"Plant response rating, Lambsquarters",[9]; [16],100
same,"Plant response rating, Goosegrass","[1]; 62 g ai/ha, scale 0 to 100",70
same,"Plant response rating (0 = no effect, 100 = complete control), Goosegrass",[1]; 125 g ai/ha,80
same,"Plant response rating, Goosegrass","[1]; 250 g ai/ha, scale 0-100",95
same,"Plant response rating, Goosegrass",[1]; [16],100
same,"Plant response rating (0 to 100 scale), Foxtail, Giant","[2]; 125 g ai/ha; 0 is no effect, 100 is complete control; preemergence",30
same,"Foxtail, Giant plant response rating","[2]; 125 g ai/ha; visual rating, scale 0 (no effect) to 100 (complete control); postemergence",10
same,"Foxtail, Giant plant response rating",[2]; [17],20
same,"Plant response rating, Kochia","[3]; 62 g ai/ha, scale 0 to 100",0
same,"Plant response rating (0 = no effect, 100 = complete control), Kochia",[3]; 125 g ai/ha,70
same,"Plant response rating, Kochia","[3]; 250 g ai/ha, scale 0-100",85
same,"Plant response rating, Kochia",[3]; [16],100
same,"Plant response rating, Ragweed","[4]; 62 g ai/ha, scale 0 to 100",0
same,"Plant response rating (0 = no effect, 100 = complete control), Ragweed",[4]; 125 g ai/ha,20
same,"Plant response rating, Ragweed","[4]; 250 g ai/ha, scale 0-100",90
same,"Plant response rating, Ragweed",[4]; [16],95
same,"Plant response rating, Crabgrass, Large","[6]; 62 g ai/ha, scale 0 to 100",90
same,"Plant response rating (0 = no effect, 100 = complete control), Crabgrass, Large",[6]; 125 g ai/ha,95
same,"Plant response rating, Crabgrass, Large","[6]; 250 g ai/ha, scale 0-100",100
same,"Plant response rating, Crabgrass, Large",[6]; [16],100
same,"Sedge, Umbrella plant response rating","[7]; 62 g ai/ha, scale 0 to 100",75
same,"Sedge, Umbrella plant response rating",[7]; [18],75
same,"Sedge, Umbrella plant response rating",[7]; [13],80
same,"Plant response rating, Sedge, Umbrella",[7]; [14],85
same,"Plant response rating (0 to 100 scale), Pigweed","[8]; 125 g ai/ha, 0 is no effect, 100 is complete control, preemergence",70
same,Pigweed plant response rating,"[8]; 125 g ai/ha, visual rating, scale 0 (no effect) to 100 (complete control), postemergence",50
same,Pigweed plant response rating,"[8]; Postemergence, 500 g ai/ha, scale 0 (no effect) to 100 (complete control)",60
CCn1nc(C(C)(C)C)cc1C(=O)Nc1cc(C(=O)N(C)OC)ccc1F [Compound 244],"Plant response rating, Goosegrass","[1]; 62 g ai/ha, scale 0 to 100",70
same,"Plant response rating, Goosegrass",[1]; [10],95
same,"Plant response rating, Goosegrass","[1]; 250 g ai/ha, scale 0-100",100
same,"Plant response rating, Goosegrass",[1]; [16],100
same,"Foxtail, Giant plant response rating (0 to 100 scale)","[2]; 125 g ai/ha; 0 = no effect, 100 = complete control; preemergence",80
same,"Plant response rating, Foxtail, Giant","[2]; 500 g ai/ha; visual rating, 0 = no effect, 100 = complete control; preemergence",90
same,"Foxtail, Giant plant response rating",[2]; [11],20
same,"Foxtail, Giant plant response rating",[2]; [17],30
same,"Plant response rating, Ragweed","[4]; 62 g ai/ha, scale 0 to 100",95
same,"Plant response rating, Ragweed","[4]; 250 g ai/ha, scale 0-100",100
same,"Plant response rating, Ragweed",[4]; [16],100
same,"Plant response rating, Surinam Grass","[5]; 62 g ai/ha, scale 0 to 100",100
same,"Plant response rating, Surinam Grass","[5]; 250 g ai/ha, scale 0-100",100
same,"Plant response rating, Surinam Grass",[5]; [16],100
same,"Plant response rating, Crabgrass, Large","[6]; 62 g ai/ha, scale 0 to 100",100
same,"Plant response rating, Crabgrass, Large",[6]; [10],100
same,"Plant response rating, Crabgrass, Large","[6]; 250 g ai/ha, scale 0-100",100
same,"Plant response rating, Crabgrass, Large",[6]; [16],100
same,"Sedge, Umbrella plant response rating",[7]; [12],20
same,"Sedge, Umbrella plant response rating",[7]; [18],65
same,"Sedge, Umbrella plant response rating",[7]; [13],70
same,"Plant response rating, Sedge, Umbrella",[7]; [14],85
same,Pigweed plant response rating (0 to 100 scale),"[8]; 125 g ai/ha, 0 = no effect, 100 = complete control, preemergence",90
same,"Plant response rating, Pigweed","[8]; 500 g ai/ha, visual rating, 0 = no effect, 100 = complete control, preemergence",100
same,Pigweed plant response rating,[8]; [15],50
same,Pigweed plant response rating,"[8]; postemergence, 500 g ai/ha, scale 0 to 100, 0 is no effect, 100 is complete control",70
